Experimental data published in publication PMC3304006 (Journal of the American Chemical Society, 2012).

Biological target: free peptide Cys-Lys-D-Ala-D-Ala
Experiment: SPR binding to immobilized free peptide
Conditions: read-out: KD values from the current work, Free peptide, equilibrium fit, 25 °C

Molecule | Kd
CN[C@H]1C(=O)N[C@@H]2Cc3ccc(cc3)Oc3cc4cc(c3O[C@@H]3O[C@H](C(=O)O)[C@@H](O)[C@H](O)[C@H]3NC(=O)CCCCCCCCC(C)C)Oc3ccc(cc3Cl)[C@@H](O)[C@@H]3NC(=O)[C@H](NC(=O)[C@@H]4NC(=O)[C@@H](NC2=O)c2cc(cc(O)c2Cl)Oc2cc1ccc2O)c1ccc(O)c(c1)-c1c(O[C@H]2O[C@H](CO)[C@@H](O)[C@H](O)[C@@H]2O)cc(O)cc1[C@@H](C(=O)NCCCN(C)C)NC3=O [Dalbavancin] | 0.855 ± 0.1 µM
CN[C@H](CC(C)C)C(=O)N[C@H]1C(=O)N[C@@H](CC(N)=O)C(=O)N[C@H]2C(=O)N[C@H]3C(=O)N[C@H](C(=O)N[C@H](C(=O)O)c4cc(O)cc(O)c4-c4cc3ccc4O)[C@H](O)c3ccc(c(Cl)c3)Oc3cc2cc(c3O[C@@H]2O[C@H](CO)[C@@H](O)[C@H](O)[C@H]2O[C@H]2C[C@](C)(N)[C@H](O)[C@H](C)O2)Oc2ccc(cc2Cl)[C@H]1O [Vancomycin] | 4.16 ± 0.52 µM
Ristocetin | 2.42 ± 0.68 µM
